Assay results taken from publication PMC5041076, “Ilex kaushue and Its Bioactive Component 3,5-Dicaffeoylquinic Acid Protected Mice from Lipopolysaccharide-Induced Acute Lung Injury” (Scientific Reports, 2016).
Like-named read-outs stand apart in the source and are kept apart here.

Tests used:
[1] = target: T1, Human neutrophil elastase (Homo sapiens, UniProt P08246); experiment: Serine protease enzyme inhibition assay, HNE; type: biochemical; details: for Inh % (HNE inhibition): at 30 M (so in the source)
T1 construct: purchased Enzo BML-SE284
T1 sequence (P08246 30-267): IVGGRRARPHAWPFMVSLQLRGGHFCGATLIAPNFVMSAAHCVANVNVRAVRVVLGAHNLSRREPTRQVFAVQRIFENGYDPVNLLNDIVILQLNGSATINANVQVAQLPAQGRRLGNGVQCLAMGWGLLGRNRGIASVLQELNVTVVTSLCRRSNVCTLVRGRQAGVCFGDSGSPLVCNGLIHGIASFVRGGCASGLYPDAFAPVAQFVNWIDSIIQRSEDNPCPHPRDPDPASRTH

Human cathepsin G = target: T2, Human cathepsin G (Homo sapiens, UniProt P08311); experiment: Serine protease enzyme inhibition assay, cathepsin G; type: biochemical; details: mean ± S.E.M. (n ≥ 3)
T2 construct: purchased Enzo BML-SE283
T2 sequence (P08311 21-255): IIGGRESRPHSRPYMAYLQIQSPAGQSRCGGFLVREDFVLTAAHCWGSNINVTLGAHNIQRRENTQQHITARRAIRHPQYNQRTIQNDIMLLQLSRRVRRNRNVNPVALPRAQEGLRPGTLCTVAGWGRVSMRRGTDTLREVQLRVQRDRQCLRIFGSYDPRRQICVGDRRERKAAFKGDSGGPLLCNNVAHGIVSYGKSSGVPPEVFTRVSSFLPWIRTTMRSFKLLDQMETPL

Human proteinase 3 = target: T3, Human proteinase 3 (Homo sapiens, UniProt P24158); experiment: Serine protease enzyme inhibition assay, proteinase 3; type: biochemical; details: mean ± S.E.M. (n ≥ 3)
T3 construct: purchased Merk 539483
T3 sequence (P24158 28-256): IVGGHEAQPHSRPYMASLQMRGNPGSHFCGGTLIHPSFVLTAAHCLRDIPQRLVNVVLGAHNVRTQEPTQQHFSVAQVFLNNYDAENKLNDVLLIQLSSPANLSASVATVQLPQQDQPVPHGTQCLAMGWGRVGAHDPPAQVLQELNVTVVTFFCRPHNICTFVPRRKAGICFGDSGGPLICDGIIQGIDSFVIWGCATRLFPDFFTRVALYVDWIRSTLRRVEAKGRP

Bovine chymotrypsin = target: T4, Bovine chymotrypsin (Bos taurus, UniProt P00766); experiment: Serine protease enzyme inhibition assay, chymotrypsin; type: biochemical; details: mean ± S.E.M. (n ≥ 3)
T4 construct: purchased Sigma-Aldrich C4129

[2] = tested on: fMLF/CB-activated neutrophils; experiment: O2.- generation in fMLF/CB-activated neutrophils (ferricytochrome c reduction); type: cell-based, human; details: for IC50 / IC50 O2^.− generation: fMLF/CB-activated human neutrophils
Description: (§1) All assays were performed as described previously[58],[59]. Neutrophils isolated from the blood of healthy volunteers (20–30 years old) were resuspended in a Ca^2+-free HBSS buffer (pH 7.4) at 4 °C before use. O2^.− generation was measured based on reduction of ferricytochrome c. In brief, after supplementation with 0.5 mg/ml ferricytochrome c and 1 mM Ca^2+, neutrophils were equilibrated at 37 °C for 2 min and incubated with the specified drugs for 5 min. Neutrophils were activated using 30 nM fMLF or 100 nM LTB4 for 10 min after addition of cytochalasin B (CB, 1 μg/mL) for 3 min. Changes in absorbance concomitant with reduction of ferricytochrome c at 550 nm were continuously monitored. For elastase release, neutrophils (6 × 10^5 cells/mL) were mixed with methoxysuccinyl-Ala-Ala-Pro-Val-pNA (100 μM) substrate at 37 °C for 5 min. […] Inhibition of superoxide generation and elastase release were calculated in keeping with previous reports.

[3] = tested on: fMLF/CB-activated neutrophils; experiment: Elastase release in fMLF/CB-activated neutrophils; type: cell-based; details: for IC50: read-out: IC50 HNE (NE activity / elastase release)
Description: as §1

Human thrombin = Human thrombin (Homo sapiens, UniProt P00734); experiment: Serine protease enzyme inhibition assay, thrombin
[4] = enzyme assay, mean ± S.E.M. (n ≥ 3), read-out: IC50 HNE
[5] = fMLF/CB-activated human neutrophils
[6] = read-out: IC50 Thrombin, enzyme assay, mean ± S.E.M. (n ≥ 3)
[7] = Table S3, read-out: IC50 HNE inhibitory activity

| SMILES | IC50 [1, 4] | IC50 (Human cathepsin G) | IC50 (Human proteinase 3) | IC50 (Bovine chymotrypsin) | IC50 [2] | IC50 [3, 5] | IC50 (Human thrombin; [6]) | IC50 O2^.− generation [2] | further results |
| --- | --- | --- | --- | --- | --- | --- | --- | --- | --- |
| C=C1C2=C3C=C[C@@H]4[C@@]5(C)CC[C@H](O)C(C)(C)[C@@H]5CC[C@@]4(C)[C@]3(C)CC[C@@]23CC[C@]1(C)OC3=O [Compound 11-2] | 8.55 ± 1.77 µM | > 30 µM | 1.99 ± 0.25 µM | 6.04 ± 0.29 µM | > 10 µM | > 10 µM | 2.98 ± 0.35 µM |  | selectivity of inhibitory effect among serine proteases ([1]; five serine proteases examined): non-selective inhibitory effects |
| C[C@@H]1O[C@@H](O[C@H]2[C@H](O[C@H]3CC[C@]4(C)[C@H]5C=CC6=C7[C@]8(CC[C@](C)(OC8=O)[C@@]7(C)O)CC[C@@]6(C)[C@]5(C)CC[C@H]4C3(C)C)OC[C@H](O)[C@@H]2O[C@@H]2O[C@H](CO)[C@@H](O)[C@H](O)[C@H]2O)[C@H](O)[C@H](O)[C@H]1O [Compound 11] | > 30 µM | > 30 µM | > 30 µM | > 30 µM | > 10 µM | > 10 µM | > 30 µM |  |  |
| CC1(C)CC[C@]2(C(=O)O)CC[C@]3(C)C(=CC[C@@H]4[C@@]5(C)CC[C@H](O)C(C)(C)[C@@H]5CC[C@]43C)[C@@H]2[C@@H]1O [Compound 14-1] | > 30 µM | > 30 µM | > 30 µM | > 30 µM | 4.77 ± 0.4 µM | 2.84 ± 1.02 µM | > 30 µM |  |  |
| C[C@@H]1O[C@@H](O[C@H]2[C@H](OC(=O)[C@]34CCC(C)(C)[C@@H](O)[C@H]3C3=CC[C@@H]5[C@@]6(C)CC[C@H](O[C@@H]7OC[C@H](O)[C@H](O[C@@H]8O[C@H](CO)[C@@H](O)[C@H](O)[C@H]8O)[C@H]7O[C@@H]7O[C@@H](C)[C@H](O)[C@@H](O)[C@H]7O)C(C)(C)[C@@H]6CC[C@@]5(C)[C@]3(C)CC4)O[C@H](CO)[C@@H](O)[C@@H]2O)[C@H](O)[C@H](O)[C@H]1O [Compound 14] | > 30 µM | > 30 µM | > 30 µM | > 30 µM | > 10 µM | > 10 µM | > 30 µM |  |  |
| CC1=C2C3=CCC4[C@@]5(C)CC[C@H](O)C(C)(C)C5CC[C@@]4(C)[C@]3(C)CC[C@@]2(C(=O)O)CC[C@H]1C (stereo partly drawn) [Compound 15-1, randialic acid B] | > 30 µM | > 30 µM | 17.44 ± 0.16 µM | 16.98 ± 0.1 µM |  |  |  | good inhibitory effects | IC50 ([2]; Neutrophil): 0.14 ± 0.09 µM; efficacy relative to ursolic acid ([2]; fMLF-induced neutrophils): 5 fold; IC50 ([3]; Neutrophil, fMLF/CB-activated human neutrophils): 0.06 ± 0.01 µM; IC50 HNE (NE activity / elastase release) [3, 5]: good inhibitory effects; IC50 (Human thrombin): 24.9 ± 1.33 µM |
| CC(C)(C)C(=O)Oc1ccc(S(=O)(=O)Nc2ccccc2C(=O)NCC(=O)O)cc1 [Elaspol, reference compound] |  |  | 0.56 ± 0.06 µM |  |  |  |  |  |  |
| COc1cc(/C=C/C(=O)O)ccc1O [FA, ferulic acid, reference compound] |  |  |  |  | > 10 µM | > 10 µM |  | non-active | IC50 [1, 7]: > 30 µM; Inh % (HNE inhibition) ([1]; Table S3): 0.06 ± 4.79% |
| O=C(O)[C@]1(O)C[C@@H](O)[C@@H](O)[C@H](O)C1 [QA, quinic acid] |  |  |  |  |  |  |  |  | IC50 ([2]; Neutrophil): > 10 µM; IC50 ([3]; Homo sapiens, Neutrophil): > 10 µM |
| O=C(/C=C/c1ccc(O)c(O)c1)O[C@H](Cc1ccc(O)c(O)c1)C(=O)O [RA, rosaminiric acid, reference compound] |  |  |  |  | 1.29 ± 0.09 µM | > 10 µM |  | potently inhibit | IC50 [1, 7]: > 30 µM; Inh % (HNE inhibition) ([1]; Table S3): 10.58 ± 4.03% |
| O=C(O)c1cc(O)c(O)c(O)c1 [THBA, 3,4,5-trihyroxybenzoic acid, reference compound] |  |  |  |  | 1.14 ± 0.08 µM | > 10 µM |  | potently inhibit |  |
| O=C(O)/C=C/c1ccc(O)cc1 [p-CA, p-coumaric acid, reference compound] |  |  |  |  |  |  |  | non-active | IC50 [1, 7]: > 30 µM; Inh % (HNE inhibition) ([1]; Table S3): -4.00 ± 3.42%; IC50 ([2]; Neutrophil): > 10 µM; IC50 ([3]; Homo sapiens, Neutrophil): > 10 µM |
